How the values were obtained:
[1] = Binding affinity to rat CCR1 by radioligand binding assay
[2] = Half life in human; type: ADME, organism-based; settings: in vivo
[3] = Half life in rat; type: ADME, organism-based; settings: in vivo
[4] = biological target: T1, C-C chemokine receptor type 1 (Homo sapiens, UniProt P32246)
T1 sequence (P32246 whole entry): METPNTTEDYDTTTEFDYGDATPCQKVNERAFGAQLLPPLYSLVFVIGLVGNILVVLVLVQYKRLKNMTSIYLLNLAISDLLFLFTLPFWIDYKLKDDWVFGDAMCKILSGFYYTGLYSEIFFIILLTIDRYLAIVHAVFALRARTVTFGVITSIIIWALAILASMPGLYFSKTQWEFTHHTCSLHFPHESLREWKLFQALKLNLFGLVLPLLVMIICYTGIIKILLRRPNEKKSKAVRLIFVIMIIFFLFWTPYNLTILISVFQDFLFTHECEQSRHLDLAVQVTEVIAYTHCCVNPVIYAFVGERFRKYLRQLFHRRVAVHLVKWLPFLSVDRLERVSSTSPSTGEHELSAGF

[5] = Oral bioavailability in dog; type: ADME, organism-based, Canis lupus familiaris; settings: in vivo
[6] = Oral bioavailability in rat; type: ADME, organism-based; settings: in vivo
[7] = physchem; settings: octanol/water
Description: Lipophilicity, log P of the compound

[8] = biological target: T2, Muscarinic acetylcholine receptor M2 (Homo sapiens, UniProt P08172)
T2 sequence (P08172 whole entry): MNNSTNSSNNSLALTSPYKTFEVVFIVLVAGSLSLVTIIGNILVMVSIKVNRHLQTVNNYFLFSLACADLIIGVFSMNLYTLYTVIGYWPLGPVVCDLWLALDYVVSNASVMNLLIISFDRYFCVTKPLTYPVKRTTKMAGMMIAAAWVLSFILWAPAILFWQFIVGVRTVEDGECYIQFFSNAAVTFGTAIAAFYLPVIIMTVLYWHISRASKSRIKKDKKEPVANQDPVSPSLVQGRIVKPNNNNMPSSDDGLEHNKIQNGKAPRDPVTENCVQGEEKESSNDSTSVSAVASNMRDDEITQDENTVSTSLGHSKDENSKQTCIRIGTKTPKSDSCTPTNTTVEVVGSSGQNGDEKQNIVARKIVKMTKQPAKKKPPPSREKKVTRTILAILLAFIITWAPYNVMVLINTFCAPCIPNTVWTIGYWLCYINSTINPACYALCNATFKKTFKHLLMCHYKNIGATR
Description: Binding affinity to muscarinic M2 receptor

[9] = species: Cavia porcellus; test: Inhibition of CCL3-induced immune cell recruitment in guinea pig sensitization model; type: functional, organism-based
[10] = biological target: C-C chemokine receptor type 5 (Homo sapiens, UniProt P51681)
Sequence of C-C chemokine receptor type 5 (P51681 whole entry): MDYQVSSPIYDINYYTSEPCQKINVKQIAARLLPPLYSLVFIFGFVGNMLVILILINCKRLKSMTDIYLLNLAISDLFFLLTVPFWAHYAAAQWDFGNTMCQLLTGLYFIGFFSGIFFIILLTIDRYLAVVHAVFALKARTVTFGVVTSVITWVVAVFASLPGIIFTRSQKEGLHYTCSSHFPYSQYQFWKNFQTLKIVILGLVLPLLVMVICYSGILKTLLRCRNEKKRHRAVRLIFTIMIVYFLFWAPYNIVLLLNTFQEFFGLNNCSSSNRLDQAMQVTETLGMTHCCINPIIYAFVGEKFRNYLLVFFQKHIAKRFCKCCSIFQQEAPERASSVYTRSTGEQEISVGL

SMILES | Kd [1] [nM] | half-life [2] [h] | half-life [3] [h] | Ki [4] [nM] | bioavailability [5] [%] | bioavailability [6] [%] | logP [7] | Ki [8] [nM] | EC50 [9] [mg/kg] | Ki [10] [nM]
C[C@@H]1CN(Cc2ccc(F)cc2)CCN1C(=O)COc1ccc(Cl)cc1NC(N)=O [BX 471 FREE BASE] | 121 | 2.3 | – | – | – | – | – | – | – | –
CC1(C)CN(CC/C=C2/c3cc(C(=O)O)ccc3OCc3ncccc32)C[C@H](c2ccc(Cl)cc2)[C@H]1O | – | – | 3 | 2.3 | 100 | 35 | 5.1 | 1.3 | 0.03 | 1

Reference: ChEMBL document CHEMBL2176887, “Chemokine receptor antagonists” (J Med Chem, 2012)
